Laboratory results: BindingDB's records for doi:10.7270/Q2CN728N (Nmmlsc, 2008)
Structures can show the parent of a compound that is named as a salt.

These molecules were tested against T1, Bcl-2-related protein A1 (Homo sapiens, UniProt Q16548) (assay: inhibitors of Bim binding to Bfl-1, dose response, biochemical, multiplexed, bead-based flow cytometry (AID 1320)). Details: inactive by the depositor's call; pH 7.4; 4 °C.
T1 sequence (Q16548 whole entry): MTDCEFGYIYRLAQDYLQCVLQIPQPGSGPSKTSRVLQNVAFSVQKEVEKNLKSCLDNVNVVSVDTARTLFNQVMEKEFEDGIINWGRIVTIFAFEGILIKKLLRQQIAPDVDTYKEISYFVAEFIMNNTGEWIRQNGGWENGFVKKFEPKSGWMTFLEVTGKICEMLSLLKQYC
`CN1CCN(C2=C(Cl)C(=O)C(c3cnc(N4CCCCC4)s3)=C(Cl)C2=O)CC1` was tested, and the EC50 was 0.01 µM. Work on `Cc1ccc(-c2ccc(/C=C/C(=O)c3ccccc3)o2)cc1` yielded an EC50 of 7.03 µM. Work on `CCN(CC)c1ccc(-c2nn3c(-c4ccccc4OC)nnc3s2)cc1` yielded an EC50 of 40.8 µM. In the case of `CCN(CC)c1ccc(-c2nn3c(-c4n[nH]c5c4CCC5)nnc3s2)cc1`, the EC50 is reported as 28.6 µM. `CN(C)c1ncc(C2=C(Cl)C(=O)C(N3CCCC3)=C(Cl)C2=O)s1` was tested, and the EC50 was 0.04 µM. Molecule `O=C(/C=C/c1ccc(-c2ccccc2[N+](=O)[O-])o1)c1ccccc1` has an EC50 of 2.61 µM. In the case of `c1ccc(C2=Nc3cccc4cccc(c34)N2)cc1`, the EC50 is reported as 26.2 µM. In the case of `CCN(CC)c1ccc(NC(=O)c2ccccc2Br)cc1S(=O)(=O)Nc1ccccc1OC`, the EC50 is reported as 5.4 µM. With `Cc1ccc(/C=C2/NC(=O)N(Cc3ccc(Br)cc3)C2=O)o1` the EC50 was 5.22 µM. For `CCOC(=O)c1c(NC(C)=O)sc2c(O)c(Br)cc(Br)c12`, the EC50 was 17.8 µM. `COc1ccc(N2C(=O)C(=Cc3cccs3)NC2=S)cc1` showed an EC50 of 3.86 µM. `O=C1CSc2ccc(C(=O)Nc3cccc(S(=O)(=O)Nc4ccc(Br)cc4)c3)cc2N1` gave an EC50 of 5.81 µM. `CCOc1ccc(-n2cc(-c3ccc(OC)c(OC)c3)[nH]c2=S)cc1` gave an EC50 of 0.68 µM. With `CCOC(=O)c1ccc(/N=c2/ssnc2Cl)cc1` the EC50 was 37.5 µM. Molecule `Cc1ccc(-c2nc3c(c(=O)[nH]c(=O)n3Cc3ccccc3)n2Cc2ccccc2)o1` has an EC50 of 8.43 µM. `CC1N(C)c2cccc3cccc(c23)N1C` [1,2,3-trimethyl-2,3-dihydro-1H-perimidine] gave an EC50 of 2.46 µM. Work on `Cc1c(/N=C2\C=CC(=O)c3ccccc32)c(=O)n(-c2ccccc2)n1C` [1,5-dimethyl-4-[(4-oxo-1-naphthalenylidene)amino]-2-phenyl-3-pyrazolone] yielded an EC50 of 53.5 µM. `Cc1ccc(O)c(NC2=C(Cl)C(=O)N(Cc3ccccc3)C2=O)c1` [1-benzyl-3-chloro-4-(2-hydroxy-5-methylanilino)pyrrole-2,5-dione] was tested, and the EC50 was 13.8 µM. Work on `Cc1ccc(C(=O)/C=C/c2ccc(-c3ccc(C)cc3)o2)cc1` [1-p-Tolyl-3-(5-p-tolyl-furan-2-yl)-propenone] yielded an EC50 of 3.23 µM. `COc1ccc(/C=C(/C(=O)c2cccs2)N2C=CC=CC2=C(C#N)C#N)cc1` [2-[1-[(Z)-1-(4-methoxyphenyl)-3-oxidanylidene-3-thiophen-2-yl-prop-1-en-2-yl]pyridin-2-ylidene]propanedinitrile] was tested, and the EC50 was 2.23 µM. `Cc1ccc(-c2cc(-c3ccc(Cl)cc3)c(C#N)c(N)n2)o1` [2-azanyl-4-(4-chlorophenyl)-6-(5-methylfuran-2-yl)pyridine-3-carbonitrile] was tested, and the EC50 was 2.65 µM. In the case of `Cc1ccc(/C=C/C(=O)c2ccccc(=O)c2O)c(C)c1` [3-[3-(2,4-dimethylphenyl)acryloyl]-2-hydroxy-2,4,6-cycloheptatrien-1-one], the EC50 is reported as 51.1 µM. `N#Cc1cccc(/N=c2/ssnc2Cl)c1` [3-[(4-chloro-5-dithiazolylidene)amino]benzonitrile] gave an EC50 of 14.5 µM. `COc1ccc(N2C(=O)C(Cl)=C(Oc3cccc(OC)c3)C2=O)cc1` [3-chloro-4-(3-methoxyphenoxy)-1-(4-methoxyphenyl)-1H-pyrrole-2,5-dione] was tested, and the EC50 was 0.68 µM. Work on `CCOc1cc(S(=O)(=O)Nc2ccccn2)ccc1F` [3-ethoxy-4-fluoro-N-(2-pyridinyl)benzenesulfonamide] yielded an EC50 of 44.5 µM.

Same assay, conditions: pH 7.4; 4 °C
For `CN1CCc2cccc3c2[C@@H]1Cc1ccc(O)c(O)c1-3`, the EC50 was 15.1 µM. Work on `O=C(Nc1ccc2nc(-c3ccco3)c(-c3ccco3)nc2c1)N1CCCCCC1` yielded an EC50 of 0.92 µM. With `CCN1C(=O)/C(=C/C=C2\C=CN(CC)c3ccccc32)SC1=S` the EC50 was 3.6 µM. `CCC(/C=C1\Sc2ccc(OC)cc2N1CCO)=C\c1sc2ccc(OC)cc2[n+]1CCO` gave an EC50 of 20.3 µM. `N#Cc1cc(-c2ccccc2)nn1-c1ccccc1` gave an EC50 of 2.02 µM. `Cc1ccc(-c2cc(-c3ccc(F)cc3)c(C#N)c(N)n2)o1` was tested, and the EC50 was 5.2 µM. With `Cc1c(N=C2C(=O)N(c3ccccc3Cl)C(=O)C2Cl)c(=O)n(-c2ccccc2)n1C` (stereo not drawn) the EC50 was 6.04 µM. With `CCN=c1scc(C)n1N=Cc1ccc(O)c(O)c1O` the EC50 was 19.6 µM. In the case of `Cc1cccc(N2C(=S)C(C#N)C(=O)NC2c2cccs2)c1` (stereo not drawn), the EC50 is reported as 18.3 µM. Work on `O=C1C(Cl)=C(N2CCN(c3ccccc3[N+](=O)[O-])CC2)C(=O)c2ccccc21` yielded an EC50 of 0.36 µM. In the case of `c1ccc(-c2nc(N3CCOCC3)[s+]n2-c2ccccc2)cc1`, the EC50 is reported as 0.05 µM. Work on `Cc1ccc(C)c(/C=C/C(=O)c2ccccc(=O)c2O)c1` yielded an EC50 of 8.74 µM. In the case of `O=C(NC1=C(Nc2ccc(Cl)cc2)C(=O)c2ccccc2C1=O)c1ccccc1`, the EC50 is reported as 2.91 µM. Work on `CCN(CC)S(=O)(=O)c1cccc(C(=O)NN=Cc2ccc(O)c(O)c2O)c1` yielded an EC50 of 6.41 µM. With `O=C(Nc1ccc2nc(-c3ccco3)c(-c3ccco3)nc2c1)N1CCN(c2ccccn2)CC1` the EC50 was 5.94 µM. In the case of `O=C(c1ccccc1)c1ccc2nc(-c3ccco3)c(-c3ccco3)nc2c1`, the EC50 is reported as 9.94 µM. `CCOc1ccccc1CNc1ccc(O)cc1` was tested, and the EC50 was 1.13 µM. `CCN1/C(=C/c2ccc3cc(C)ccc3[n+]2CC)Sc2cc(C)c(C)cc21` showed an EC50 of 16.9 µM. Work on `COc1ccc(-n2cc(-c3ccc(OC)c(OC)c3)[nH]c2=S)cc1` yielded an EC50 of 1.58 µM. With `O=c1[nH]c(O)c(Cc2ccc(-c3cc(Cl)ccc3[N+](=O)[O-])o2)c(=O)[nH]1` the EC50 was 1.24 µM. For `O=C(NCCCO)Nc1ccc2nc(-c3ccco3)c(-c3ccco3)nc2c1` [1-[2,3-bis(2-furanyl)-6-quinoxalinyl]-3-(3-hydroxypropyl)urea], the EC50 was 1.25 µM. `O=C(NCc1ccccc1)c1ccc2nc(-c3ccco3)c(-c3ccco3)nc2c1` [2,3-bis(furan-2-yl)-N-(phenylmethyl)quinoxaline-6-carboxamide] showed an EC50 of 3.06 µM. `COc1ccc2nc(-c3ccco3)c(-c3ccco3)nc2c1` [2,3-di-2-furyl-6-methoxyquinoxaline] showed an EC50 of 4.93 µM. `O=C(NCc1ccccn1)c1ccc2nc(-c3ccco3)c(-c3ccco3)nc2c1` [2,3-di-2-furyl-N-(pyridin-2-ylmethyl)quinoxaline-6-carboxamide] showed an EC50 of 3.66 µM. With `O=C(Nc1ccccc1)c1ccc2nc(-c3ccco3)c(-c3ccco3)nc2c1` [2,3-di-2-furyl-N-phenyl-6-quinoxalinecarboxamide] the EC50 was 7.56 µM. With `Cc1cccc(NC2=NC(=O)C(=CC=Cc3ccco3)S2)c1C` [2-(2,3-Dimethyl-phenylamino)-5-[(E)-3-furan-2-yl-prop-2-en-(Z)-ylidene]-thiazol-4-one] the EC50 was 3.17 µM. With `c1coc(C2=Nc3cccc4cccc(c34)N2)c1` [2-(2-furanyl)-1H-perimidine] the EC50 was 6.32 µM. In the case of `Cc1cc(C)c(S(=O)(=O)N=C2C=C(SCC(=O)O)C(=O)c3ccccc32)cc1C` [2-[1-oxidanylidene-4-(2,4,5-trimethylphenyl)sulfonylimino-naphthalen-2-yl]sulfanylethanoic acid], the EC50 is reported as 8.24 µM. With `COc1cc(CNc2ccc3[nH]c(=O)[nH]c3c2)cc(Br)c1OCC(=O)NC(C)(C)C` [2-[2-bromo-6-methoxy-4-[[(2-oxo-1,3-dihydrobenzimidazol-5-yl)amino]methyl]phenoxy]-N-tert-butylacetamide] the EC50 was 0.87 µM. Work on `Cc1ccc(/C=C/C2=Cc3c(sc(NC(=O)CSc4nnc(N)[nH]4)c3C#N)C(C)(C)C2)o1` [2-[(5-azanyl-1H-1,2,4-triazol-3-yl)sulfanyl]-N-[3-cyano-7,7-dimethyl-5-[(E)-2-(5-methylfuran-2-yl)ethenyl]-6H-1-benzothiophen-2-yl]ethanamide] yielded an EC50 of 4.19 µM. With `Cc1nnc(Sc2cc(NCCO)c([N+](=O)[O-])c3nonc23)s1` [2-[[7-[(5-methyl-1,3,4-thiadiazol-2-yl)thio]-4-nitro-2,1,3-benzoxadiazol-5-yl]amino]ethanol] the EC50 was 0.52 µM. With `CCOC(=O)CSC1=NC(=O)/C(=C/c2ccc(OC)cc2)S1` [2-[[(5Z)-5-[(4-methoxyphenyl)methylidene]-4-oxo-2-thiazolyl]thio]acetic acid ethyl ester] the EC50 was 1.12 µM. `Cc1ccc(-c2cc(-c3ccc(C)o3)nc(N)c2C#N)cc1` [2-amino-6-(5-methylfuran-2-yl)-4-(4-methylphenyl)pyridine-3-carbonitrile] was tested, and the EC50 was 2.25 µM. `Cc1cc(-c2cc(-c3ccc(Cl)cc3)nc(N)c2C#N)co1` [2-azanyl-6-(4-chlorophenyl)-4-(5-methylfuran-3-yl)pyridine-3-carbonitrile] gave an EC50 of 3.86 µM. `CCN(CC)c1ccc(NC2=C(Cl)C(=O)c3ccccc3C2=O)cc1` [2-chloro-3-{[4-(diethylamino)phenyl]amino}naphthoquinone] gave an EC50 of 0.18 µM. Molecule `CC(=O)OCCNc1cc(Sc2nc3ccccc3[nH]2)c2nonc2c1[N+](=O)[O-]` [2-{[7-(1H-benzimidazol-2-ylthio)-4-nitro-2,1,3-benzoxadiazol-5-yl]amino}ethyl acetate] has an EC50 of 5.6 µM. With `O=C(/C=C/c1ccccc1Cl)c1ccccc(=O)c1O` [3-[(E)-3-(2-chlorophenyl)prop-2-enoyl]-2-oxidanyl-cyclohepta-2,4,6-trien-1-one] the EC50 was 9.01 µM. In the case of `O=C(c1ccccc1)c1[nH]n(-c2ccccc2)c2c(O)n(-c3ccccc3)c(=O)c1-2` [3-benzoyl-1,5-diphenyl-3a,6a-dihydropyrrolo[3,4-c]pyrazole-4,6-dione], the EC50 is reported as 1.36 µM. Work on `COc1ccc(N2C(=O)C(=Nc3c(C)n(C)n(-c4ccccc4)c3=O)C(Cl)C2=O)cc1` (stereo not drawn) [3-chloranyl-4-[(1,5-dimethyl-3-oxidanylidene-2-phenyl-pyrazol-4-yl)amino]-1-(4-methoxyphenyl)pyrrole-2,5-dione] yielded an EC50 of 12 µM. `Cc1c(N=C2C(=O)N(c3ccccc3)C(=O)C2Cl)c(=O)n(-c2ccccc2)n1C` (stereo not drawn) [3-chloranyl-4-[(1,5-dimethyl-3-oxidanylidene-2-phenyl-pyrazol-4-yl)amino]-1-phenyl-pyrrole-2,5-dione] showed an EC50 of 15.4 µM. `Cc1cc(N)ccc1N1CCCC1` [3-methyl-4-(1-pyrrolidinyl)aniline;hydrochloride] was tested, and the EC50 was 7.93 µM. Work on `CNC(CC(=O)c1ccc([N+](=O)[O-])cc1)C(Cl)(Cl)Cl` (stereo not drawn) [4,4,4-Trichloro-3-methylamino-1-(4-nitro-phenyl)-butan-1-one] yielded an EC50 of 0.47 µM. In the case of `COc1cc(C2Nc3cccc4cccc(c34)N2)cc(OC)c1O` [4-(2,3-dihydro-1H-perimidin-2-yl)-2,6-dimethoxyphenol], the EC50 is reported as 1.73 µM.
